Data from ChEMBL document CHEMBL1201862, “PubChem BioAssay data set” (2004).
Calls of active or inactive are those of the source.

How the values were obtained:
[1] = target: Voltage-gated inwardly rectifying potassium channel KCNH2 (Homo sapiens, UniProt Q12809); assay: hERG protection from proarrhythmic block, potency, dose response, cell-based, thallium flux (AID 2121); type: ADME
Streptokinase A = target: T1, Streptokinase A (Streptococcus pyogenes serotype M1, UniProt P10520); assay: S. pyogenes streptokinase expression inhibitors, potency, dose response, plasminogen activation absorbance, OD405 (AID 1914); type: functional, Streptococcus pyogenes M1 GAS;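 note: secreted streptokinase activity via plasminogen activation per viability signal from cell pellet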
T1 sequence (P10520 whole entry): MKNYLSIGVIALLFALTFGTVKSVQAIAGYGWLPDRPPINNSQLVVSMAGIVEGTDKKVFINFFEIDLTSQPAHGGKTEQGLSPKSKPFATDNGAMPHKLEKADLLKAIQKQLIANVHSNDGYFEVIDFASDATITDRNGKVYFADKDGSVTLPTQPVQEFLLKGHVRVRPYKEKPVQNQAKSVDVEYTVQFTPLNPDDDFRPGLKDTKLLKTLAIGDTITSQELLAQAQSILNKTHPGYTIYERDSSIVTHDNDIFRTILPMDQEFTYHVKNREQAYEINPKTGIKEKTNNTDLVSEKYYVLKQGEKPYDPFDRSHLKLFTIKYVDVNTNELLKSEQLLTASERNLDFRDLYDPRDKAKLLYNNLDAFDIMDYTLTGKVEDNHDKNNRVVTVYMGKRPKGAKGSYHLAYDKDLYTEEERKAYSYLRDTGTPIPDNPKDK

[2] = target: T2, Mannose-6-phosphate isomerase (Homo sapiens, UniProt P34949); assay: inhibitors of human PMI, primary screen, biochemical, fluorescence intensity, coupled assay (AID 1209)
T2 sequence (P34949 whole entry): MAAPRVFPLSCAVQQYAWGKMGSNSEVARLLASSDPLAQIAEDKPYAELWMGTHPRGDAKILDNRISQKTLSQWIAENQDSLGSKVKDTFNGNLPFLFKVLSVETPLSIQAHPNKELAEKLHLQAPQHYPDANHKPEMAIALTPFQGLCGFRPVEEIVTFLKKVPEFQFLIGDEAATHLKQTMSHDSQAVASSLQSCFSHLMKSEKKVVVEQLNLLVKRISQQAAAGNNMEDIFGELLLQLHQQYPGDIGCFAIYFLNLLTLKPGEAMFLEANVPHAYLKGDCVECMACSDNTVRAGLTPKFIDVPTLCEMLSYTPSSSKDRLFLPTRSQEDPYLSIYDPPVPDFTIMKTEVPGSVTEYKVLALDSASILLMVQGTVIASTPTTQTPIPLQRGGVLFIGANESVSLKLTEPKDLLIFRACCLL

[3] = Luminescence Cell-Based Dose Response HTS to Identify Activators of Luciferase Translation or Activity in H4 […] Cells. [Related pubchem assays: 1829 (Project Summary), 1814 (Primary HTS)]; type: functional
[4] = target: T2, Mannose-6-phosphate isomerase; assay: human PMI inhibitors, high substrate, primary screen, biochemical, fluorescence intensity, high mannose 6-phosphate (AID 1220)
[5] = HEp-2 cell cytotoxicity, dose response, cytotoxicity control for RSV inhibitor project, HTS (AID 2410); type: functional; details: human respiratory syncytial virus
H4 = assay: Luminescence Cell-Based Dose Response HTS to Identify Activators of 5'UTR Stem-Loop Driven Prion Protein mRNA Translation in H4 Neuroglioblastoma Cells. [Related pubchem assays: 1829 (Project Summary), 1814 (Primary HTS)]; type: functional; details: Homo sapiens
[6] = Luminescence Cell-Based Dose Confirmation HTS to Identify Activators of 5'UTR Stem-Loop Driven Alpha-Synuclein mRNA Translation in H4 Neuroglioblastoma Cells. [Related pubchem assays: 1829 (Project Summary), 1814 (Primary HTS)]; type: functional
[7] = Artemis endonuclease inhibitor potency, dose response, biochemical, fluorescence intensity (AID 720701); type: functional;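 note: Artemis endonuclease enzyme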
[8] = target: T3, Carboxy-terminal domain RNA polymerase II polypeptide A small phosphatase 1 (Homo sapiens, UniProt Q9GZU7); assay: inhibitors of CTDSP1, concentration-response testing, biochemical assay, absorbance-based, actives from ultra-high-throughput screening (AID 540297); type: functional
T3 sequence (Q9GZU7 whole entry): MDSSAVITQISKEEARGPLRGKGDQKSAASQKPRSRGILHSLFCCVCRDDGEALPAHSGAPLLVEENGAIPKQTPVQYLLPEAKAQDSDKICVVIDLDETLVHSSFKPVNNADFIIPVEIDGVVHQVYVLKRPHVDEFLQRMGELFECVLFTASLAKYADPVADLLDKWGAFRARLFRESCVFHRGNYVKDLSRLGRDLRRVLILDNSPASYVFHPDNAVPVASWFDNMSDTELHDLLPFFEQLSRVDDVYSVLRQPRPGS

[9] = target: Induced myeloid leukemia cell differentiation protein Mcl-1 (Homo sapiens, UniProt Q07820); type: functional
Induced myeloid leukemia cell differentiation protein Mcl-1, sequence (Q07820 whole entry): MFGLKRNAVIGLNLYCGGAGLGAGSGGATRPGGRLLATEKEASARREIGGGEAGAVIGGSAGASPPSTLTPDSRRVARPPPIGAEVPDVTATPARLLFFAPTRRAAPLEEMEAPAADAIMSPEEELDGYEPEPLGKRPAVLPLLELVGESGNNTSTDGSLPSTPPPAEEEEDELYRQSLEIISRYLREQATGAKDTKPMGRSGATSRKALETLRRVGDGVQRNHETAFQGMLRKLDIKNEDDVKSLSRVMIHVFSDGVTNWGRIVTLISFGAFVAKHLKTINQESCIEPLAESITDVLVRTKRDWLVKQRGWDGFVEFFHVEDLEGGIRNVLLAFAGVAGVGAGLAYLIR

NS3 = NS3 (Hepatitis C virus, UniProt A3EZJ3); assay: PubChem AID 2173; design: species or system Hepacivirus hominis
NS3, sequence (A3EZJ3 whole entry): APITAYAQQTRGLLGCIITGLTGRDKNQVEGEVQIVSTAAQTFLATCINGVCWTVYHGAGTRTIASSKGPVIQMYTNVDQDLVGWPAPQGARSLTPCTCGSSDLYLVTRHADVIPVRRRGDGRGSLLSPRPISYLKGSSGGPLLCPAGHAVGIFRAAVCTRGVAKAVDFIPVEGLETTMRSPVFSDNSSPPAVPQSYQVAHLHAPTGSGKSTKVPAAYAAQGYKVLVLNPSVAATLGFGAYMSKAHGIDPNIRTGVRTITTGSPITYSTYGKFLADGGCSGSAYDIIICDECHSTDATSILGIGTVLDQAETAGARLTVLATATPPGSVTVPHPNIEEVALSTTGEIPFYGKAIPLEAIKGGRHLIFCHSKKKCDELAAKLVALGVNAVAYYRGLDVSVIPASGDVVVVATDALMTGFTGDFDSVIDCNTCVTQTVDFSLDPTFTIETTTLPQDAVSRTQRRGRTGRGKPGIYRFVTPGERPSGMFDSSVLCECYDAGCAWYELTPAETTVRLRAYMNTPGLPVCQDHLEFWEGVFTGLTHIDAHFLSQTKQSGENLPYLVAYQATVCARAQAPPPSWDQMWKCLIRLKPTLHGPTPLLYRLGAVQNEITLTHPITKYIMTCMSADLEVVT

DNA topoisomerase = DNA topoisomerase (Yersinia pestis, UniProt A0A2S9PM60); assay: Y. pestis Topo-I inhibitors, cleavage product readout, dose response, biochemical, cherry-pick (AID 588525)
DNA topoisomerase, sequence (A0A2S9PM60 whole entry, the tested form may be a part): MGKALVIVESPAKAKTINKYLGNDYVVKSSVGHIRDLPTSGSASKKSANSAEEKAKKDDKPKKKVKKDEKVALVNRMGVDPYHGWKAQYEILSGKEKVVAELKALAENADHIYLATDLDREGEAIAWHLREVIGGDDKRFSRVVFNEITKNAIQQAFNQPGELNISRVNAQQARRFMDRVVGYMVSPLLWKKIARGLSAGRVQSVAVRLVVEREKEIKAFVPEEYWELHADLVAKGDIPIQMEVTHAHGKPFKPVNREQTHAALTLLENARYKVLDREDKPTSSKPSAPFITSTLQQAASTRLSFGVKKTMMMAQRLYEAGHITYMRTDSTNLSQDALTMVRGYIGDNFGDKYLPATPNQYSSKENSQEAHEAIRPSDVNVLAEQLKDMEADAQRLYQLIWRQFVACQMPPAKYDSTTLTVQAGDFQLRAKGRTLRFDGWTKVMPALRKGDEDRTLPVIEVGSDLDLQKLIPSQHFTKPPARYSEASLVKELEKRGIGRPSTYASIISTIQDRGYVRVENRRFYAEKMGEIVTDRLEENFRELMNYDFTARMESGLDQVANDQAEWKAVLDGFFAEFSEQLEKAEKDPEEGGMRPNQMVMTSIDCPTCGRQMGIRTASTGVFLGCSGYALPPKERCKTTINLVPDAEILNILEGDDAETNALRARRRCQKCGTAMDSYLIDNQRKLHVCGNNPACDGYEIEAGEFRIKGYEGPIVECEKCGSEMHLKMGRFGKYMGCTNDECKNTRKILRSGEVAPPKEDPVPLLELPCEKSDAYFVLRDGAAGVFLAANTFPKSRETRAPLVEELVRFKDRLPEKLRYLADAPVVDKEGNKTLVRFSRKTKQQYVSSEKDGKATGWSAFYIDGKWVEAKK

Estrogen receptor = target: T4, Estrogen receptor (Homo sapiens, UniProt P03372); assay: potentiators of ERα–SRC-1 coactivator binding, dose response, biochemical, TR-FRET, ERα LBD (AID 737)
T4 sequence (P03372 whole entry): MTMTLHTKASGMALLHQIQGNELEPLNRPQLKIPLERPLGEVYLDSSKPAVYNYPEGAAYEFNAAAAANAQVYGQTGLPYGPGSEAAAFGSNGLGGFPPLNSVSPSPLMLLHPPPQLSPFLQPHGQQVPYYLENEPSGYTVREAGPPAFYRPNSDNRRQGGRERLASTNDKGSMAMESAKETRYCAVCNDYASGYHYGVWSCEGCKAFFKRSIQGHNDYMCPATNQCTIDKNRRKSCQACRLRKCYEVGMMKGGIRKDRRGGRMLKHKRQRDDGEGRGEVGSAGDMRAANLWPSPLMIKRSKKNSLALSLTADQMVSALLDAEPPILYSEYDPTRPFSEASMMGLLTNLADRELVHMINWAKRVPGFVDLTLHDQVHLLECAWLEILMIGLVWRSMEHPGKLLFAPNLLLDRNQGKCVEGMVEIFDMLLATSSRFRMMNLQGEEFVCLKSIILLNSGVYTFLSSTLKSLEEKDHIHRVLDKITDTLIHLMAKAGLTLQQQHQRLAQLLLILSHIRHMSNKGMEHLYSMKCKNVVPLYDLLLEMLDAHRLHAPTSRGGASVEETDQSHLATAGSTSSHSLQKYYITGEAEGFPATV

cells = type: functional
[10] = M. tuberculosis H37Rv growth inhibitors, H37Rv strain (AID 1626); type: functional
NADPH oxidase 1 = target: T5, NADPH oxidase 1 (Homo sapiens, UniProt Q9Y5S8); assay: Late-stage luminescence-based cell-based dose response assay to identify inhibitors of NADPH oxidase 1 (NOX1): Synthesized analogs 2.; type: functional
T5 sequence (Q9Y5S8 whole entry): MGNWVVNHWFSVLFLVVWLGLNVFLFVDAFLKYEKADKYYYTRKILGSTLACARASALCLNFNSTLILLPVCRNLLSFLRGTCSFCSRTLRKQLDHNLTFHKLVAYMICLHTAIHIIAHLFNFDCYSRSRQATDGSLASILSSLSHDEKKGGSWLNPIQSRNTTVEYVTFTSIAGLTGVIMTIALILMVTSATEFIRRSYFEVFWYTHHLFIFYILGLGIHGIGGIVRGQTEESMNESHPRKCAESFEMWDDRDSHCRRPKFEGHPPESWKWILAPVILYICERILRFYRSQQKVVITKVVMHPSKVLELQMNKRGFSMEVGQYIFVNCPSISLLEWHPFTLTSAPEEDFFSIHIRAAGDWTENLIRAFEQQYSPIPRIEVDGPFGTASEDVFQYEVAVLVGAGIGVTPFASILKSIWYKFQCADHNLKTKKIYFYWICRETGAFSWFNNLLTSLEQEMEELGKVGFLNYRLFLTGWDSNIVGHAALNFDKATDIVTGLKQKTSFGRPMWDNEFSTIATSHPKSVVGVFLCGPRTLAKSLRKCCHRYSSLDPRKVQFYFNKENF

Voltage-gated inwardly rectifying potassium channel KCNH2, sequence (Q12809 whole entry): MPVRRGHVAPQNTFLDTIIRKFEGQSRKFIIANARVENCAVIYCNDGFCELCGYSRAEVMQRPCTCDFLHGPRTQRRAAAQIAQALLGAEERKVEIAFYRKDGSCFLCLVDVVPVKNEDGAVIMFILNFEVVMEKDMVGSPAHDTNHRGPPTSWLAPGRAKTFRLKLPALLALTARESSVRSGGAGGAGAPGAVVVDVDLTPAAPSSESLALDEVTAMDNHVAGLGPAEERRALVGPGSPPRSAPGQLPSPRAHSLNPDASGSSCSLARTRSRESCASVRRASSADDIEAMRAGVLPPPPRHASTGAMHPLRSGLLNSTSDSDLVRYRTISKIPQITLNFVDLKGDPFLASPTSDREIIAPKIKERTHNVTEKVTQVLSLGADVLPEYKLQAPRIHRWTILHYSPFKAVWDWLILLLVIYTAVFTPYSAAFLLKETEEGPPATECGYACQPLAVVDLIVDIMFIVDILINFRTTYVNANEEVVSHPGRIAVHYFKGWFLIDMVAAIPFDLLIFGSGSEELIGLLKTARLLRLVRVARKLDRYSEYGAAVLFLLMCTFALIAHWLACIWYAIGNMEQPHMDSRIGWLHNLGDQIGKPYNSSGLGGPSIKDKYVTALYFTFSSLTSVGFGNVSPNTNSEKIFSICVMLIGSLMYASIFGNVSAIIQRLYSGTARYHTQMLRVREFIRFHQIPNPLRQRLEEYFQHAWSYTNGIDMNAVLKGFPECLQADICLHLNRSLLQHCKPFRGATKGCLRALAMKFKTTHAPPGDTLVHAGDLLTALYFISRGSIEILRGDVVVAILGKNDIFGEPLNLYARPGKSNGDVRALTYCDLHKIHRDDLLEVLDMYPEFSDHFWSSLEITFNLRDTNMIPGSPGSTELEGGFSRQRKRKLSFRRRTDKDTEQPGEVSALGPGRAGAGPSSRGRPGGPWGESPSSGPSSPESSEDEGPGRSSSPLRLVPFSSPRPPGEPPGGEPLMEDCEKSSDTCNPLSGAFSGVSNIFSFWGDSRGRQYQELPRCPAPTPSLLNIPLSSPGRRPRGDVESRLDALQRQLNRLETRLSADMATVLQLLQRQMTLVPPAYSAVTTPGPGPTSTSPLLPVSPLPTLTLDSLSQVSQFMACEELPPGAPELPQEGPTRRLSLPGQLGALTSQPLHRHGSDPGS

Which EC50 [1] does the source give for `CCOC(=O)c1sc2nc(Cc3ccc(Cl)cc3)[nH]c(=S)c2c1C` here?
Its EC50 is 920 nM (active).

What about the EC50 (Streptokinase A) of the same molecule?
The EC50 was > 150 µM (not active).

For `CCOC(=O)c1c(C)oc2c1c1c(c3ccccc32)OCN(Cc2ccccn2)C1`, which IC50 [2] is on record?
The IC50 was > 50 µM (not active).

And the EC50 [3]?
Its EC50 is 12.9 µM (active).

And the IC50 [4]?
The IC50 was > 50 µM (not active).

What about the CC50 [5] of the same molecule?
The CC50 was 40.2 µM (active).

And the EC50 (H4)?
The EC50 was 816 nM (active).

And the EC50 [6]?
The EC50 was 1.87 µM (active).

What does the source list for `O=C(Nc1nc(-c2ccco2)c(-c2ccco2)s1)C1CC(=O)N(c2ccc3c(c2)OCCO3)C1` (configuration not stated)?
IC50 [7]: > 20 µM (inactive); IC50 [8]: 3.1 µM (active); IC50 [9]: 4.4 µM (active); IC50 (NS3): 26.3 µM (not active)

For `CCc1ccc(Nc2nc(N)nc(CSc3nnnn3-c3ccccc3)n2)cc1`, which AC50 (DNA topoisomerase) is on record?
The AC50 was 6.16 µM (active).

And the EC50 (Estrogen receptor)?
Its EC50 is 4.76 µM (active).

Which IC50 (cells) does the source give for `O=C(Nc1nc2ccccc2[nH]1)c1cccc([N+](=O)[O-])c1` here?
Its IC50 is 4.91 µM (active).

What about the IC50 [10] of the same molecule?
The IC50 was > 100 µM (active).

For `CN1c2ccccc2Sc2cc(NC(=O)c3ccc(C(=O)c4ccccc4)cc3)ccc21`, which IC50 (NADPH oxidase 1) is on record?
The IC50 was > 50 µM (not active).
